Experimental data as given in patent publication US4044134A, “Fused pyrimidin-4(3H)-ones as antiallergy agents” (Pfizer Inc., priority 1976, dated 1977).
Where two headings read alike, the source gives them in different places.

Key:
[1] = system: passive cutaneous anaphylaxis (PCA) reaction; assay: passive cutaneous anaphylaxis (PCA) test, i.v. or oral administration; format: in vivo, male Charles River Wistar rats
Protocol: In the PCA test, normal animals are injected intradermally (i.d.) with antibodies contained in serum obtained from actively sensitized animals. The animals are then challenged intravenously with antigen mixed with a dye such as Evans' Blue. The increased capillary-permeability caused by the antigen-antibody reaction causes the dye to leak from the site of the antibody injection. The test animals are then asphyxiated and the intensity of the reaction determined by measuring the diameter and intensity of the blue coloration on the inner surface of the animals skin. […] The ability of agents to interfere with PCA reactions is measured in male Charles River Wistar rats, 170-210 g. […] Hyperimmune antisera to hen egg albumin is prepared according to Orange, et al., J. Exptl. […] Forty-eight hours prior to antigen challenge the reaginic antisera is injected intradermally (i.d.) into the shaved skin of a normal rat's back; 5 hours before challenge the hyperimmune antisera is similarly injected; 5 hours later, at a third site, 60 mcg. histamine dihydrochloride is injected i.d. as a check for antihistaminic and unspecific types of blockage; the compounds of the instant invention or saline are then administered i.v. and immediately followed by 2.5 mg. Evan's blue dye and 5 mg. egg albumin in saline. In the case of oral administration Evan's blue dye and egg albumen are given five minutes after administration of the drug. Thirty minutes later the animals are asphyxiated using chloroform and the skin of the back removed and reversed for observation. A score is assigned each injection site equal to the product of the diameter of the site in mm. and a grade of 0.1, 0.5, 1, 2, 3 or 4 proportional to intensity of dye coloration. The scores for a given injection site are summed for each group of 8 animals and compared to the saline treated controls. The difference is expressed as percent blockade due to the compound employed. […] Disodium cromoglycate, a commerial antiallergy agent, is included for comparison. [drawing 3]

bronchi = conditions: in vivo; cited from earlier work
PCA reaction = PCA reaction test after aerosol administration (nebulizer); format: in vivo, rats
[2] = hypotension and bradycardia in dogs; format: in vivo
[3] = intravenous toxicity in mice
bronchial asthma = conditions: in vivo; cited from earlier work
[4] = Rattus norvegicus, iv, I.V., read-out: degree (%) of protection, PCA test
[5] = Rattus norvegicus, Oral, read-out: degree (%) of protection, PCA test

O=c1[nH]cnc2cc3ccccc3cc12 [Benzo[g]quinazolin-4(3H)-one, reference compound]
inhibition in vivo at 3 mg/kg [1, 4]: 31% | bronchodilator activity (bronchi): active as a bronchodilator

CCOC(=O)c1nc2nc3cc(OC)c(OC)cc3cc2c(=O)[nH]1 [COOC2 H5/H/H/OCH3/OCH3/H, Ethyl 7,8-dimethoxypyrimido[4,5-b]quinolin-4(3H)-one-2-carboxylate]
inhibition in vivo at 0.003 mg/kg ([1]; Rattus norvegicus, iv, I.V., 0.003 mg/kg, read-out: degree (%) of protection, PCA test): 36% | inhibition in vivo at 0.01 mg/kg ([1]; Rattus norvegicus, iv, I.V., 0.01 mg/kg, read-out: degree (%) of protection, PCA test): 70% | inhibition in vivo at 0.03 mg/kg ([1]; Rattus norvegicus, iv, I.V., 0.03 mg/kg, read-out: degree (%) of protection, PCA test): 75% | inhibition in vivo at 0.1 mg/kg [1, 4]: 90% | inhibition in vivo at 0.3 mg/kg [1, 4]: 90% | inhibition in vivo at 1 mg/kg [1, 4]: 100% | minimal effective dose ([1]; Rattus norvegicus, iv, read-out: intravenously active at a level as low as): 0.003 mg/kg | inhibition in vivo at 0.03 mg/kg ([1]; Rattus norvegicus, Oral, 0.03 mg/kg (so in the source), read-out: degree (%) of protection, PCA test): 30% | inhibition in vivo at 1 mg/kg [1, 5]: 51% | inhibition in vivo at 3 mg/kg [1, 5]: 75% | inhibition in vivo at 10 mg/kg [1, 5]: 80% | routes of administration by which active ([1]; rat, in vivo): active via the oral, intravenous, intraperitoneal and inhalation routes of administration | concentration of solutions giving concentration related responses by aerosol (PCA reaction): 0.3 to 30 mg/mL | hypotension and bradycardia [2]: marked but transient hypotension and bradycardia | intravenous dose that did not cause death in mice ([3]; intravenous, mice): 1000 mg/kg | toxicity ([3]; mouse, in vivo): relatively free of toxicity

O=C(O)c1cc(=O)c2c(OCC(O)COc3cccc4oc(C(=O)O)cc(=O)c34)cccc2o1 [Disodium chromoglycate, 1,3-bis-(2-carboxychromon-5-yloxy)-2-hydroxypropane, reference compound]
inhibition in vivo at 0.1 mg/kg [1, 4]: 19% | inhibition in vivo at 0.3 mg/kg [1, 4]: 29% | inhibition in vivo at 1 mg/kg [1, 4]: 56% | inhibition in vivo at 3 mg/kg [1, 4]: 78% | inhibition in vivo at 10 mg/kg [1, 4]: 89% | inhibition in vivo at 30 mg/kg ([1]; Rattus norvegicus, iv, I.V., 30 mg/kg, read-out: degree (%) of protection, PCA test): 99% | inhibition in vivo at 100 mg/kg [1, 4]: 100% | inhibition in vivo at 100 mg/kg [1, 5]: 0% | bronchodilator activity (bronchi): not a bronchodilator | efficacy by route of administration (bronchial asthma): lack of oral efficacy

CN[C@@H](C)[C@H](O)c1ccccc1 [ephedrine]
bronchodilator activity (bronchi): orally efficacious bronchodilator

CNC[C@H](O)c1ccc(O)c(O)c1 [epinephrine]
bronchodilator activity (bronchi): bronchodilator effects

CC(C)NCC(O)c1ccc(O)c(O)c1 (stereo not drawn) [isoproterenol]
bronchodilator activity (bronchi): potent aerosol bronchodilator

CC(C)(C)NCC(O)c1ccc(O)c(CO)c1 (stereo not drawn) [solbutamol]
bronchodilator activity (bronchi): potent bronchodilator of prolonged duration, and active via both oral and aerosol administration

Cn1c(=O)c2[nH]cnc2n(C)c1=O [theophylline]
bronchodilator activity (bronchi): generally less potent than the sympathomimetic amines such as isoproterenol and solbutamol, and are ineffective in aerosol administration
